ChEMBL document CHEMBL1201862, “PubChem BioAssay data set” (2004)
Activity calls are given as the source filed them. Rule as the data show it, for most assays here: active = EC50 of 10 µM or less and inactive = more.

Columns and labels:
HEK293 [1] = test: optical interference in Abeta FP readout, dose response, artefact control for IDE activator project, biochemical, fluorescence polarization (AID 588442); assay type: functional, cell-based; settings: Homo sapiens
HEK293 [2] = test: HEK cell cytotoxicity by LDH release, dose response, cytotoxicity control for IDE activator project, fluorescence, HEK cells (AID 588440); assay type: functional, cell-based; settings: Homo sapiens;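 also: cytotoxicity by LDH release measuring loss of membrane integrity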
Insulin-degrading enzyme [3] = target: T1, Insulin-degrading enzyme (Homo sapiens, UniProt P14735); test: activators of endogenous IDE in HEK cells, dose response, cell-based, fluorescence polarization (AID 588439); assay type: functional
T1 sequence (P14735 whole entry): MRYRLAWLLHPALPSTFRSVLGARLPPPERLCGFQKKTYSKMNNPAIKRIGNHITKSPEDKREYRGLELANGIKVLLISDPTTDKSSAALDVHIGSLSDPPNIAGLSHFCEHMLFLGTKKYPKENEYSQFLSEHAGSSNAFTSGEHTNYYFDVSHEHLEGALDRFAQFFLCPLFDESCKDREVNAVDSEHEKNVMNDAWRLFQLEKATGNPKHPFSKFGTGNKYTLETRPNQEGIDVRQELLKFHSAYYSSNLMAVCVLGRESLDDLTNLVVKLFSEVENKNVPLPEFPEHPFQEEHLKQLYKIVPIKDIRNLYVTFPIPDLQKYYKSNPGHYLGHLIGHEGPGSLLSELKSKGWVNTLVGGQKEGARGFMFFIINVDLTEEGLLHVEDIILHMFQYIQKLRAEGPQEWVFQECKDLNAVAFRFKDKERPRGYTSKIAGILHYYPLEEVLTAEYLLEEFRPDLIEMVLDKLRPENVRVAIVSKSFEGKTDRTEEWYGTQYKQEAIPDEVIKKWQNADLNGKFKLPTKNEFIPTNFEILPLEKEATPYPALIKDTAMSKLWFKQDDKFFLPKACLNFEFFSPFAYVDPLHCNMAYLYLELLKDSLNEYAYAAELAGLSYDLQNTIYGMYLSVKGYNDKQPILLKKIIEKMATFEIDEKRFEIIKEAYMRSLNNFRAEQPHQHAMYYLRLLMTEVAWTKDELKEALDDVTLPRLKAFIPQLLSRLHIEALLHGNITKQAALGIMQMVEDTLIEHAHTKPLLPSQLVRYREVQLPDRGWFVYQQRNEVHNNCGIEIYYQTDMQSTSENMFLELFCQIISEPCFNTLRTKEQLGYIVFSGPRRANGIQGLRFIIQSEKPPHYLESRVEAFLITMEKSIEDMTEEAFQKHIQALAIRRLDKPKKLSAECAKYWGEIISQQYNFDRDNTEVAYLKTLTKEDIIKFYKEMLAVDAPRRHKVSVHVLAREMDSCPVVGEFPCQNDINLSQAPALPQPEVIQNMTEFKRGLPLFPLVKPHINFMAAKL

Insulin-degrading enzyme [4] = target: T1, Insulin-degrading enzyme; test: activators of recombinant IDE enzyme, dose response, counter-screen for IDE activator project, biochemical, fluorescence polarization (AID 588681)
[5] = THP-1 cell cytotoxicity, cytotoxicity control, set 6 (AID 602433); assay type: functional; settings: Mycobacterium tuberculosis

SMILES | EC50 (HEK293 [1]) | IC50 (HEK293 [2]) | EC50 (Insulin-degrading enzyme [3]) | EC50 (Insulin-degrading enzyme [4]) | CC50 [5]
COc1ccc(CCNC(=O)COC(=O)C2CC2C)cc1OC (stereo not given) | > 55.9 µM (inactive) | > 89.2 µM (inactive) | > 54.7 µM (inactive) | > 54.7 µM (inactive) | –
O=C(c1ccc(CNc2c(N3CCOCC3)c(=O)c2=O)cc1)N1CCC(c2ccccc2)CC1 | – | – | – | – | > 100 µM (active)
